Among the test systems are ACHN renal; DU-145 prostate; EKVX NSCLC; HL-60(TB) leukemia; HT29 colon; LOX IMVI melanoma; MDA-MB-231 breast; NCI-H460 lung; PC-3 prostate; SF-539 CNS; SK-MEL-5 melanoma; SW-620 colon; U251 CNS.
Holding throughout (assay): inhibition of tumour cell growth, NCI panel, 48 h

Molecules are shown by their SMILES.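 Cells were grown in 96-well plates and exposed to each compound for 48 hours at five concentrations; endpoints were interpolated linearly between bracketing concentrations, or set to the highest concentration if not reached. The concentration for full growth arrest is given as TGI.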 Some results are limits rather than exact numbers.

On to `Nc1c(Cl)ncnc1N[C@@H]1C[C@H]1CO`, for which the TGI in the experiment with ACHN renal, in the experiment on DU-145 prostate, in the experiment with EKVX NSCLC, in the experiment on HL-60(TB) leukemia, with HT29 colon and in the experiment with LOX IMVI melanoma was above 100 µM in each case. For the same compound, the TGI in the experiment on MDA-MB-231 breast, in the experiment on NCI-H460 lung, in the experiment on PC-3 prostate, in the experiment with SF-539 CNS, in the experiment on SK-MEL-5 melanoma and in the experiment with SW-620 colon was above 100 µM in each case. In the experiment on U251 CNS, this compound came in with a TGI above 100 µM.
`O=c1oc2ccccc2c(Nc2ccc3c(c2)Oc2ccccc2O3)c1[N+](=O)[O-]`: the TGI was 32.7 µM with ACHN renal; 90.1 µM with DU-145 prostate; 67.6 µM with EKVX NSCLC; above 100 µM with HL-60(TB) leukemia; above 100 µM in the experiment on HT29 colon; above 100 µM in the experiment with LOX IMVI melanoma. Further, the TGI in the experiment on MDA-MB-231 breast was 38.3 µM; in the experiment on NCI-H460 lung it was above 100 µM; in the experiment on PC-3 prostate, 32.5 µM; with SF-539 CNS, 36.4 µM; in the experiment with SK-MEL-5 melanoma, 45.3 µM; with SW-620 colon, 74.9 µM. In the experiment with U251 CNS, this compound came in with a TGI of 30 µM.
Consider `C/C=C/C(O)P1(=O)N(Cc2ccccc2)[C@@H]2CCCC[C@H]2N1Cc1ccccc1` (stereo not given in full), for which the TGI in the experiment on ACHN renal, in the experiment on DU-145 prostate, with EKVX NSCLC, with HL-60(TB) leukemia, in the experiment on HT29 colon and in the experiment on LOX IMVI melanoma was above 25 µM each time. For the same compound, the TGI in the experiment with MDA-MB-231 breast, with NCI-H460 lung, in the experiment on PC-3 prostate, with SF-539 CNS, in the experiment on SK-MEL-5 melanoma and in the experiment with SW-620 colon was above 25 µM throughout. For the same compound, in the experiment with U251 CNS, the TGI is above 25 µM.
Turning to `CC1(CF)SCc2nc3ccccc3n21` (stereo not given), the TGI in the experiment on ACHN renal, with DU-145 prostate, in the experiment with EKVX NSCLC, with HL-60(TB) leukemia, in the experiment on HT29 colon and with LOX IMVI melanoma was above 100 µM each time. The TGI in the experiment on MDA-MB-231 breast, with NCI-H460 lung, with PC-3 prostate, with SF-539 CNS, in the experiment on SK-MEL-5 melanoma and with SW-620 colon was above 100 µM throughout. Moreover, in the experiment with U251 CNS, the TGI is above 100 µM.
Regarding `C1CNCCNCCN1`, the TGI in the experiment with ACHN renal, in the experiment on DU-145 prostate, in the experiment on EKVX NSCLC, with HL-60(TB) leukemia, in the experiment on HT29 colon and in the experiment with LOX IMVI melanoma was above 100 µM throughout. The TGI in the experiment with MDA-MB-231 breast, in the experiment on NCI-H460 lung, in the experiment with PC-3 prostate, with SF-539 CNS, in the experiment on SK-MEL-5 melanoma and in the experiment on SW-620 colon was above 100 µM each time. Besides, the TGI in the experiment on U251 CNS is above 100 µM.
With `CC(=O)O[C@H]1CC[C@@]2(C)C(=CC[C@H]3[C@@H]4C[C@H](N5CCCC5)[C@H](OC(C)=O)[C@@]4(C)CC[C@@H]32)C1`, the TGI in the experiment on ACHN renal was above 100 µM; in the experiment on DU-145 prostate, above 100 µM; in the experiment with EKVX NSCLC, above 100 µM; in the experiment on HL-60(TB) leukemia, above 80.9 µM; with HT29 colon, 69.4 µM; with LOX IMVI melanoma it was above 100 µM. Besides, the TGI in the experiment with MDA-MB-231 breast is above 100 µM; in the experiment on NCI-H460 lung, above 100 µM; with PC-3 prostate, above 100 µM; with SF-539 CNS, above 65.3 µM; with SK-MEL-5 melanoma, 54.8 µM; in the experiment with SW-620 colon, above 100 µM. The compound further displayed a TGI in the experiment on U251 CNS above 100 µM.
For the compound `CC1=NN2C(=N)/C(=C/c3ccco3)C(=O)N=C2S1`, the TGI in the experiment with ACHN renal, in the experiment with DU-145 prostate, in the experiment with EKVX NSCLC, in the experiment on HL-60(TB) leukemia, in the experiment with HT29 colon and in the experiment on LOX IMVI melanoma was above 100 µM in each case. Moreover, the TGI in the experiment on MDA-MB-231 breast, in the experiment on NCI-H460 lung, in the experiment with PC-3 prostate, with SF-539 CNS, in the experiment on SK-MEL-5 melanoma and with SW-620 colon was above 100 µM in each case. For the same compound, in the experiment with U251 CNS, the TGI is above 100 µM.
For the compound `CN(C)c1ccc(C2SCC(=O)N2NS(=O)(=O)c2cccc(C(=O)O)c2)cc1` (stereo not given), the TGI in the experiment on ACHN renal, with DU-145 prostate, with EKVX NSCLC, with HL-60(TB) leukemia, in the experiment on HT29 colon and in the experiment with LOX IMVI melanoma was above 100 µM each time. Also, the TGI with MDA-MB-231 breast, in the experiment on NCI-H460 lung, in the experiment with PC-3 prostate, in the experiment with SF-539 CNS, in the experiment with SK-MEL-5 melanoma and with SW-620 colon was above 100 µM in each case. Moreover, in the experiment with U251 CNS, the TGI is above 100 µM.
With `CCN1C(=O)C(=C/C=C/c2ccc([N+](=O)[O-])cc2)C(=O)N(CC)C1=S`, the TGI is 32.1 µM in the experiment with ACHN renal; 33.3 µM with DU-145 prostate; 62.7 µM in the experiment with EKVX NSCLC; above 100 µM with HL-60(TB) leukemia; 50.7 µM in the experiment on HT29 colon; 33.2 µM with LOX IMVI melanoma. In addition, the TGI in the experiment on MDA-MB-231 breast is 47 µM; in the experiment on NCI-H460 lung, above 100 µM; with PC-3 prostate, 34.6 µM; in the experiment with SF-539 CNS, 40.1 µM; with SK-MEL-5 melanoma it was 42.8 µM; in the experiment on SW-620 colon it was 36.8 µM. For the same compound, the TGI in the experiment on U251 CNS is 32.4 µM.
On to `C=C1C(=O)CC2C(=O)C(C)(O)CC/C=C(\C)C(=O)CC12` (stereo not given), for which the TGI in the experiment with ACHN renal was 27.3 µM; in the experiment on DU-145 prostate it was 42.2 µM; with EKVX NSCLC, 53.9 µM; with HL-60(TB) leukemia, 8.87 µM; in the experiment on HT29 colon, above 64.9 µM; in the experiment on LOX IMVI melanoma it was 35.4 µM. Also, the TGI in the experiment with MDA-MB-231 breast is 74.7 µM; with NCI-H460 lung it was above 100 µM; in the experiment with PC-3 prostate, 83 µM; in the experiment with SF-539 CNS, 59.8 µM; in the experiment on SK-MEL-5 melanoma, 35.6 µM; with SW-620 colon, above 34.2 µM. The compound further showed a TGI with U251 CNS above 100 µM.

The values are drawn from PubChem BioAssay (NCI).
